Laboratory results taken from article PMC8187357 (Communications Biology, 2021).
“And” between values parts separate entries of the source, which are not always exact repeats. Equal entries are not always repeated.

What was measured:
GABA = experiment: CEREP 80 panel binding: GABA; details: 10 µM
Experimental: (§1) CEREP 80 panel assay was carried out by Eurofins Cerep Panlabs facility at France. A series of binding assays was carried out to understand the off-target toxicity of CA-170. CA-170 was tested at 10 μM test concentration in duplicates. Compound binding was calculated as a % inhibition of the binding of a radioactively labeled ligand specific for each target. In each experiment the respective reference compound was tested concurrently with CA-170, and the data were compared with historical values determined at Eurofins. The experiment was accepted in accordance with Eurofins validation standard operating procedure. The results are expressed as a percent of control specific binding; (measured specific binding / control specific binding) × 100 and as a percent inhibition of control specific binding; 100−(measured specific binding / control specific binding) × 100 obtained in the presence of CA-170. The IC50 values (concentration causing a half-maximal inhibition of control specific binding) and Hill coefficients (nH) were determined by non-linear regression analysis of the competition curves generated with mean replicate values using Hill equation curve fitting.

[1] = tested on: advanced (stage 4) non-squamous NSCLC; set-up: method as in doi:10.1093/annonc/mdz253.035; details: Phase 2, cited from earlier work
[2] = tested on: Muscarinic M1, M2, M3, M4, M5; experiment: CEREP 80 panel binding: Muscarinic; details: 10 µM
Experimental: as §1

NFAT reporter = tested on: NFAT reporter; set-up: method as in PMID 31374878; details: cited from earlier work
NeuropeptideY Y2 = biological target: T1, NeuropeptideY Y2 (Homo sapiens, UniProt P49146); experiment: Y2 assay, determination of IC50 (CEREP follow-up); assay type: binding
T1 construct: Eurofins Cerep Panlabs (contract laboratory)
Experimental: as §1
Opioid & Opioid like DOP, KOP, MOP, NOP ≤9
Nuclear receptors GR, PPARγ ≤7
Ion Channels Ca2+, Kv, Skca, […] 1
Amine transporters DA, NE, 5HT ≤1
25% effect at the highest validated testing concentration.

[3] = tested on: Classical Hodgkin lymphoma; set-up: method as in doi:10.1093/annonc/mdz253.035; details: Phase 2, Lugano criteria; cited from earlier work
MC38 tumor bearing mice = experiment: Immune pharmacodynamics in MC38 model; assay type: in vivo, mouse; details: CA-170, 10 mg/kg, individual animals
Source text: For the measurement of immune pharmacodynamics, CT26 cells were subcutaneously implanted into 5 to 7 weeks old male Balb/c mice by injecting 1 million CT26 tumor cells/ animal. When tumor volume reached ~200mm^3, animals were randomized and allocated to three treatment groups (n = 5). Similarly, for the measurement of immune pharmacodynamics in MC38 model, MC38 cell lines were subcutaneously implanted into 5 to 7 weeks old male C57B6 mice by injecting 0.5 million cells/animal. Dosing was initiated when tumor volume reached ~100 mm^3. In both tumor models, mice were orally treated daily with vehicle and CA-170 (10 mg/kg) for 5 days. As an additional control, anti-PD1 antibody (100 μg/animal, clone J43) was dosed intraperitoneally on day 1. After 24 h of last dosing, animals were sacrificed, and blood samples and tumor tissues were collected from each animal and processed for PD evaluation using antibodies shown in Supplementary Table 1 and specific methods reported in publication[51] and analyzed by FACS. The gating strategy is detailed in Supplementary Fig. 3.

[4] = Tolerability in the in vivo pharmacological studies (body weights, clinical signs); details: all in vivo pharmacological studies
Bradykinin B2 = biological target: T2, Bradykinin B2 (Homo sapiens, UniProt P30411); experiment: CEREP 80 panel binding: Bradykinin; details: read-out: % Inhibition of Control Specific Binding
T2 construct: Eurofins Cerep Panlabs (contract assay)
Experimental: as §1

parental CHO-K1 cells = experiment: Cellular NMR (T2), parental CHO-K1 cells; assay type: binding; details: cell-based NMR; no measurable PD-L1 expression
PD-L1 = PD-L1 (Macaca fascicularis, UniProt G7PSE7); experiment: Rescue of proliferation inhibited by PD-L1, monkey PBMC; assay type: cell-based; details: n=1
Experimental: The ability of peptides, peptidomimetics, and small molecules were analyzed for their ability to rescue T-cell proliferation or IFN-γ release from the inhibitory activity of PD-L1 or PD-L2 in a splenocyte/PBMC-based functional assay as per the protocols reported in publication. […] For all in vitro assays, test agent stock was prepared in water and diluted further in the assay media to achieve test concentrations. Each experimental condition was carried out in triplicates. Percent rescue for a given test compound concentration was calculated by normalizing individual percent test agent proliferation or IFN-γ release values to percent anti-CD3 and anti-CD28 antibodies stimulated proliferation or IFN-γ release. EC50 values were derived by plotting transformed data into non-linear fit in sigmoidal dose–response curve using GraphPad Prism software (Version 7).

Somatostatin sst = experiment: CEREP 80 panel binding: Somatostatin; details: 10 µM
Experimental: as §1

PACAP,VIP1 = experiment: CEREP 80 panel binding: VIP; details: 10 µM
Experimental: as §1

Vasopressin V1a = biological target: T3, Vasopressin V1a (Homo sapiens, UniProt P37288); experiment: CEREP 80 panel binding: Vasopressin; details: read-out: % Inhibition of Control Specific Binding
T3 construct: Eurofins Cerep Panlabs (contract assay)
Experimental: as §1

PDGF = experiment: CEREP 80 panel binding: Growth factors; details: 10 µM
Experimental: as §1

[5] = tested on: 5HT1A, 5HT1B, 5HT2A, 5HT2B, 5HT2C, 5HT3, 5HT5A, 5HT6, 5HT7; experiment: CEREP 80 panel binding: Serotonin; details: 10 µM
Experimental: as §1

Bombesin BB = experiment: CEREP 80 panel binding: Bombesin; details: 10 µM
Experimental: as §1

[6] = Phase 1, cited from earlier work

T1 sequence (P49146 whole entry): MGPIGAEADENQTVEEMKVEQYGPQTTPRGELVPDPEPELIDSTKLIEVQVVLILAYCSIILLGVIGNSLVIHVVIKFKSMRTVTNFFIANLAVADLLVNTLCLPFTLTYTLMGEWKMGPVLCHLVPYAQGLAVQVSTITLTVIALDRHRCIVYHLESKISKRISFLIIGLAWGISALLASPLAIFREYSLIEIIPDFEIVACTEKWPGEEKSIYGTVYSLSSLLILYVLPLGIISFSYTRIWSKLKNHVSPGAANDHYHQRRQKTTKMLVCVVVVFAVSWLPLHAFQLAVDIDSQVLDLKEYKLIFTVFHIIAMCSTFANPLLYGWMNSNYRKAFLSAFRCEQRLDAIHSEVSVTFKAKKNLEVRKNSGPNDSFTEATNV
T2 sequence (P30411 whole entry): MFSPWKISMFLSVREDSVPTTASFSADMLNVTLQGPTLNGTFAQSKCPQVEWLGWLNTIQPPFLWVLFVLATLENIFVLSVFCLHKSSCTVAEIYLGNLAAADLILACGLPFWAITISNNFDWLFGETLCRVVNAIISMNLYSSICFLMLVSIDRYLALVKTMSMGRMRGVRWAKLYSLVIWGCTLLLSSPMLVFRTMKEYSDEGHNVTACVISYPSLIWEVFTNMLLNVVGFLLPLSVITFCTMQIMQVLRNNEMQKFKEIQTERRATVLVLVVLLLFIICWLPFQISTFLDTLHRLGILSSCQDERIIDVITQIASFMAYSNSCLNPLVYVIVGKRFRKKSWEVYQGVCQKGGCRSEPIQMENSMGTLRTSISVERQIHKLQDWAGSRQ
T3 sequence (P37288 whole entry): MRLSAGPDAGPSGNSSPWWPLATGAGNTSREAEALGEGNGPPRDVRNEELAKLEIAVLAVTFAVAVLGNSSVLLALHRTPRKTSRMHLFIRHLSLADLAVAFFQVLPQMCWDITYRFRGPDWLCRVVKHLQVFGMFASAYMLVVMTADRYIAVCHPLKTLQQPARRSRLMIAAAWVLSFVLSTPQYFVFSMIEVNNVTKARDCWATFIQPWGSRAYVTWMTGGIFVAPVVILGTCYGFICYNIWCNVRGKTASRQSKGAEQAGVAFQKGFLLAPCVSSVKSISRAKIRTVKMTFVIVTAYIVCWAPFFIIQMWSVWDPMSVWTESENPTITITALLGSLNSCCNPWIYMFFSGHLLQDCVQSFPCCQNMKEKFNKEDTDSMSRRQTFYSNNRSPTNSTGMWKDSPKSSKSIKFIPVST
Chain of PD-L1 (G7PSE7 19-239): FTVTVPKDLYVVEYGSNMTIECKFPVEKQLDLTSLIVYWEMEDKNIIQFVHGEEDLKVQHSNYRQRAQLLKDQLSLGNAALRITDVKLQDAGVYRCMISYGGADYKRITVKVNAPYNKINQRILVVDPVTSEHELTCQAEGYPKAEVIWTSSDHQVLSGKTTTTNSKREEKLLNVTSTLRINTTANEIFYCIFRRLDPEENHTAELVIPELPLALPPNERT
Experimental for Plasma stability, human: (§2) Test compounds were tested for plasma stability (test concentration of 10 μM) as per the protocols reported in publication[20].
Experimental for Plasma stability, rat: as §2

Structure (SMILES): C[C@@H](O)[C@H](NC(=O)N[C@@H](CC(N)=O)c1nc([C@@H](N)CO)no1)C(=O)O [CA-170]
- % Inhibition of Control Specific Binding (GABA): 11%
- remaining at 4 h, 10 μM (Plasma stability, human): > 95%
- remaining at 4 h, 10 μM (Plasma stability, rat): > 95%
- PFS ([1]; advanced (stage 4) non-squamous NSCLC): 19.6 weeks
- CBR ([1]; daily dose of 400 mg, advanced non-squamous NSCLC): > 85%
- % Inhibition of Control Specific Binding [2]: ≤ 12%
- activity in NFAT-reporter-based assay (in words) (NFAT reporter): no activity
- EC50 value (Y2 assay taken for determination of IC50) (NeuropeptideY Y2; Y2): not calculable
- effect at the highest validated testing concentration (NeuropeptideY Y2; Y2 concentration-response curve): less than 25%
- ORR [3]: 30%
- CD8+ GNZ+ T cells in Tumor % Lymphocytes, CD3+, CD8+ T cells (MC38 tumor bearing mice): 52.4% and 36.3% and 28.5% and 36.2% and 20.1%
- CD8+ IFN-γ+ T cells in Blood % Lymphocytes, CD3+, CD8+ T cells (MC38 tumor bearing mice): 1.71% and 2.24% and 2.27% and 1.35% and 2.63%
- CD8+ IFN-γ+ T cells in Tumor % Lymphocytes, CD3+, CD8+ T cells (MC38 tumor bearing mice): 64.9% and 53.2% and 43.5% and 48.8% and 40.7%
- tolerability (body weights, clinical signs; in words) [4]: well tolerated
- inhibition at 10 µM (Bradykinin B2): < 0%
- binding to parental CHO-K1 cells (in words) (parental CHO-K1 cells): lack of binding
- EC50 (PD-L1): 34 nM
- % Inhibition of Control Specific Binding (Somatostatin sst): 1%
- % Inhibition of Control Specific Binding (PACAP,VIP1): ≤ 9%
- inhibition at 10 µM (Vasopressin V1a): 1%
- % Inhibition of Control Specific Binding (PDGF): 6%
- % Inhibition of Control Specific Binding [5]: ≤ 20%
- % Inhibition of Control Specific Binding (Bombesin BB): < 0%
- peripheral T-cell activation (in words) ([6]; circulating CD8+ and CD4+ T cells expressing CD69, Granzyme B, OX-40): Evidence of peripheral T-cell activation
- T1/2 ([6]; oral 50 to 1200 mg): 4 to 9.5 h
- safety profile (in words) ([6]; oral 50 to 1200 mg): acceptable safety profile
